Test results as given in article PMC12833730, “Discovery of a First‐in‐Class Covalent Allosteric SHP1 Inhibitor with Immunotherapeutic Activity” (Angewandte Chemie (International Ed. in English), 2025).
“Also recorded” adds a separate entry of the source.

Tested on: MC38 colorectal tumors
Assay: MC38 syngeneic tumor model
Assay type: in vivo, C57BL/6 mice
Method: Given its favorable PK profiles, we evaluated the antitumor activity of M029 in C57BL/6 mice bearing MC38 colorectal tumors. Mice bearing established tumors were given once daily with either saline, 25 mg/kg (IP), 25 mg/kg (PO), or 100 mg/kg (PO) M029.
Figure 5 M029 inhibits syngeneic MC38 tumor growth by promoting infiltration and activation of both T cells and NK cells in the tumor microenvironment. […] This T cell activation was further supported by i) the increased effector CD8^+ population in the tumor microenvironment. […] Statistical analyses were performed with Graphpad Prism software 10.4.2 through the student t test or the one‐way ANOVA test using Turkey post‐hoc comparison. *p < 0.05, **p < 0.01, ***p < 0.001, and ****p < 0.0001 were considered significant. Figures are plotted as average ± standard error of the mean (SEM).
All the in vivo studies were performed under an animal protocol (1511001324) approved by the Institutional Animal Care & Use Committee of Purdue University, in accordance with the recommendations in the Guide for the Care and Use of Laboratory Animals of the National Institutes of Health. For PK study, C57BL6 female mice (25-30g body weight) were injected intraperitoneally, orally, or intravenously with 25 mg/kg M029 dissolved in 0.4 ml saline. Blood samples were collected through the tail vein at the indicated time points after injection. Isoflurane was used as an anesthetic. All blood samples were centrifuged at 1,500 g for 5 minutes, and plasma was separated and stored at –80°C until analysis by a validated method based on reversed-phase liquid chromatography coupled to mass-spectrometric detection (LC/MS) using a previously published procedure.^169 For the MC38 syngeneic tumor study, 12-week-old C57BL6 female mice were injected subcutaneously with […] MC38 cells in the right and left flanks for tumor growth. When tumors reached an average volume of 100 mm^3 mice were tumor size-matched and randomly assigned to different experimental groups for experiments. Four mice with eight tumors were used in each treatment group. Mice were injected orally with saline or 25 or 100 mg/kg M029 daily. Tumor sizes and animal weights were measured twice per week. Tumor volume (mm^3) = (length X width^2)/2. At the end of the experiments, mice were euthanized, and tumors were collected for analysis. Among eight tumors collected from each group, four homogenous samples and […] were prepared for Western blots and histology analysis.

In the case of `N#Cc1ccsc1NS(=O)(=O)c1ccc(NC(=O)CCl)cc1` [M029, 2-Chloro-N-(4-(N-(3-cyanothiophen-2-yl)sulfamoyl)phenyl)acetamide], the body weight (25 or 100 mg/kg oral) is reported as “no significant changes”, the “tumor volume and tumor weight” value (25 or 100 mg/kg oral vs vehicle) is reported as “significant decreases” and the “kidney and liver tissue sections” value (IP dosing, Figure S5) is reported as “No significant lesion or tissue changes”. The “MC38 tumor progression, 25 mg/kg IP” value (once daily IP injection 25 mg/kg) was “effectively halted tumor progression”, the “MC38 tumor progression, 25 mg/kg PO” value (once daily oral gavage 25 mg/kg, 25 mg/kg) was “effectively halted tumor progression; also recorded: significantly delayed” and the “MC38 tumor progression, 100 mg/kg PO” value (once daily oral gavage 100 mg/kg, 100 mg/kg) was “effectively halted tumor progression; also recorded: significantly delayed”. For the same compound, the signs of toxicity (up to 100 mg/kg, body weight and organ histology) was “no obvious signs of toxicity”.
